In ChEMBL document CHEMBL1201862, “PubChem BioAssay data set” (2004):
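Five concentrations, 48 hours, 96-well plates. GI50 is the concentration that inhibits growth by half.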 Activity calls are given as the source filed them. Rule as the data show it: active = GI50 up to about 1.1 µM and inactive = higher.

Tests used:
Assay in all cases: growth of human tumour cells (NCI), 48 h
RPMI-8226 = tested on: RPMI-8226
SK-OV-3 = tested on: SK-OV-3
SK-MEL-2 = tested on: SK-MEL-2
SW-620 = tested on: SW-620
COLO 205 = tested on: COLO 205
Hs-578T = tested on: Hs-578T
SK-MEL-28 = tested on: SK-MEL-28
OVCAR-4 = tested on: OVCAR-4
EKVX = tested on: EKVX
HCT-116 = tested on: HCT-116
MOLT-4 = tested on: MOLT-4
NCI-H23 = tested on: NCI-H23
MDA-N = tested on: MDA-N
OVCAR-3 = tested on: OVCAR-3
BT-549 = tested on: BT-549
RXF 393 = tested on: RXF 393
UACC-257 = tested on: UACC-257
HCC 2998 = tested on: HCC 2998
OVCAR-5 = tested on: OVCAR-5
K562 = tested on: K562

| SMILES | GI50 (RPMI-8226) | GI50 (SK-OV-3) | GI50 (SK-MEL-2) | GI50 (SW-620) | GI50 (COLO 205) | GI50 (Hs-578T) | GI50 (SK-MEL-28) | GI50 (OVCAR-4) | GI50 (EKVX) | GI50 (HCT-116) | GI50 (MOLT-4) | GI50 (NCI-H23) | GI50 (MDA-N) | GI50 (OVCAR-3) | GI50 (BT-549) | GI50 (RXF 393) | GI50 (UACC-257) | GI50 (HCC 2998) | GI50 (OVCAR-5) | GI50 (K562) |
| --- | --- | --- | --- | --- | --- | --- | --- | --- | --- | --- | --- | --- | --- | --- | --- | --- | --- | --- | --- | --- |
| O=Cc1cc2c(o1)C(=O)c1ccccc1C2=O | 1.82 µM (inactive) | 2.85 µM (inactive) | 0.601 µM (active) | 0.318 µM (active) | 1.44 µM (inactive) | 0.251 µM (active) | 0.405 µM (active) | 1.17 µM (inactive) | 2.58 µM (inactive) | 0.312 µM (active) | 2.06 µM (inactive) | 0.191 µM (active) | 0.192 µM (active) | 0.358 µM (active) | 0.757 µM (active) | 1.35 µM (inactive) | 0.569 µM (active) | 1.88 µM (inactive) | 1.77 µM (inactive) | 1.46 µM (inactive) |
| NS(=O)(=O)c1nnc(NS(=O)(=O)c2ccccc2C(=O)O)s1 | > 100 µM (inactive) | > 100 µM (inactive) | > 100 µM (inactive) | > 100 µM (inactive) | > 100 µM (inactive) | > 100 µM (inactive) | > 100 µM (inactive) | > 100 µM (inactive) | > 100 µM (inactive) | > 100 µM (inactive) | 76.7 µM (inactive) | > 100 µM (inactive) | > 100 µM (inactive) | > 100 µM (inactive) | > 100 µM (inactive) | > 100 µM (inactive) | > 100 µM (inactive) | > 100 µM (inactive) | > 100 µM (inactive) | 40.7 µM (inactive) |
| CCN(CC)C(=S)/N=C(\SC(=S)N(CC)CC)c1ccccc1 | 2.48 µM (inactive) | 47.3 µM (inactive) | 30.7 µM (inactive) | > 66.8 µM (inactive) | 0.522 µM (active) | 35.4 µM (inactive) | 57 µM (inactive) | 27.3 µM (inactive) | 38.5 µM (inactive) | 14.6 µM (inactive) | 18.6 µM (inactive) | 36.9 µM (inactive) | 15.7 µM (inactive) | 28.2 µM (inactive) | > 60.4 µM (inactive) | > 49.3 µM (inactive) | 45.7 µM (inactive) | 57.1 µM (inactive) | > 80 µM (inactive) | 1.29 µM (inactive) |
| Clc1nc(NCCc2ccccc2)c2ncn(-c3ccccc3)c2n1 | 18.5 µM (inactive) | 20.4 µM (inactive) | 1.83 µM (inactive) | 29.3 µM (inactive) | 23.2 µM (inactive) | 24.4 µM (inactive) | 33.3 µM (inactive) | 14.1 µM (inactive) | 22.5 µM (inactive) | 22 µM (inactive) | 22 µM (inactive) | 25.6 µM (inactive) | 18.5 µM (inactive) | 25.2 µM (inactive) | 23.1 µM (inactive) | 24.8 µM (inactive) | 15.8 µM (inactive) | 17.1 µM (inactive) | 37.9 µM (inactive) | 25.5 µM (inactive) |
| COc1cccc2c1C(=O)c1c(O)c3c(c(O)c1C2=O)C[C@@](O)(C(C)=O)CC3OC1CC(OC2CC(N)C(O)C(C)O2)C(O)C(C)O1 (stereo not given in full) | 18.2 µM (inactive) | 51.9 µM (inactive) | 67.6 µM (inactive) | 32.7 µM (inactive) | 74.6 µM (inactive) | > 48.4 µM (inactive) | > 72.4 µM (inactive) | > 100 µM (inactive) | > 100 µM (inactive) | 29.4 µM (inactive) | 2.58 µM (inactive) | 34.9 µM (inactive) | 68.1 µM (inactive) | 31 µM (inactive) | 32.5 µM (inactive) | 83 µM (inactive) | > 67.5 µM (inactive) | 54.6 µM (inactive) | > 61.2 µM (inactive) | 19.6 µM (inactive) |
| O=c1[nH]nc(Cc2ccccc2)n1/N=C/c1cccs1 | 47.1 µM (inactive) | > 100 µM (inactive) | > 100 µM (inactive) | > 100 µM (inactive) | > 100 µM (inactive) | > 100 µM (inactive) | > 100 µM (inactive) | > 100 µM (inactive) | > 100 µM (inactive) | > 100 µM (inactive) | 80.7 µM (inactive) | > 100 µM (inactive) | > 100 µM (inactive) | > 100 µM (inactive) | > 100 µM (inactive) | 35.2 µM (inactive) | > 100 µM (inactive) | > 100 µM (inactive) | > 100 µM (inactive) | > 100 µM (inactive) |
| N#CC(C#N)=C1SC(=N\c2ccccc2)/C(=N/c2ccccc2)N1c1ccccc1 | 5.75 µM (inactive) | > 100 µM (inactive) | 5.19 µM (inactive) | 3.28 µM (inactive) | 10.1 µM (inactive) | 25.3 µM (inactive) | 22 µM (inactive) | 13.2 µM (inactive) | 36.6 µM (inactive) | 14.4 µM (inactive) | 2.24 µM (inactive) | 29.6 µM (inactive) | 12.4 µM (inactive) | 2.37 µM (inactive) | 8.24 µM (inactive) | 11 µM (inactive) | 15.7 µM (inactive) | 15.2 µM (inactive) | 20.7 µM (inactive) | 2.3 µM (inactive) |
| C=C(C1=CC(=O)C(C)(C)O1)[C@@H]1CC=C([C@@H]2CC[C@H]3[C@@]2(C)CC[C@H]2C(C)(C)C(=O)[C@H](O)C[C@]32C)[C@H](O)O1 | 0.342 µM (active) | 14.6 µM (inactive) | 2.2 µM (inactive) | 1.66 µM (inactive) | 1.8 µM (inactive) | 3.27 µM (inactive) | 4.42 µM (inactive) | 3.11 µM (inactive) | 10.1 µM (inactive) | 1.63 µM (inactive) | 0.982 µM (active) | 3.85 µM (inactive) | 1.67 µM (inactive) | 0.847 µM (active) | 5.38 µM (inactive) | 1.81 µM (inactive) | 1.97 µM (inactive) | 2.89 µM (inactive) | 13.7 µM (inactive) | 1.71 µM (inactive) |
| CCOC(=O)/C=C(/C(=O)OCC)n1ccc(=O)n(Cc2cn(CCCCOC(C)=O)nn2)c1=O | 89.3 µM (inactive) | > 100 µM (inactive) | > 100 µM (inactive) | 32.7 µM (inactive) | 31.8 µM (inactive) | > 100 µM (inactive) | > 100 µM (inactive) | > 100 µM (inactive) | > 100 µM (inactive) | > 100 µM (inactive) | 50.2 µM (inactive) | > 100 µM (inactive) | > 100 µM (inactive) | > 100 µM (inactive) | > 100 µM (inactive) | > 100 µM (inactive) | > 100 µM (inactive) | > 100 µM (inactive) | > 100 µM (inactive) | 55 µM (inactive) |
| O=[N+]([O-])c1ccc(N/N=C/c2ccc(OCCCCCCCCCCCO)cc2)c([N+](=O)[O-])c1 | 30.9 µM (inactive) | 4.24 µM (inactive) | 10.3 µM (inactive) | 4.84 µM (inactive) | 2.01 µM (inactive) | 1.32 µM (inactive) | 4 µM (inactive) | 4.13 µM (inactive) | 17 µM (inactive) | 17.4 µM (inactive) | 29.3 µM (inactive) | 14.4 µM (inactive) | 3.58 µM (inactive) | 30.3 µM (inactive) | 5.94 µM (inactive) | 2.07 µM (inactive) | 4.91 µM (inactive) | 4.78 µM (inactive) | 14.8 µM (inactive) | 1.15 µM (inactive) |
| CNC1C(O)CC(OC2C/C=C(\C)C/C(C)=C/C=C/CCC(C)CNC(=O)/C=C/C=C/C2C)OC1C (stereo not given) | 0.22 µM (active) | 1.15 µM (inactive) | 1.19 µM (inactive) | 0.12 µM (active) | 0.202 µM (active) | 0.502 µM (active) | 0.667 µM (active) | 0.303 µM (active) | 1.6 µM (inactive) | 0.278 µM (active) | 0.161 µM (active) | 0.863 µM (active) | 0.34 µM (active) | 0.986 µM (active) | 1.25 µM (inactive) | 1.08 µM (active) | 0.667 µM (active) | 0.286 µM (active) | 1.18 µM (inactive) | 0.0995 µM (active) |
| Cc1cccc2nc3cccc(C(=O)NCCC[N+](C)(CCCNC(=O)c4cccc5nc6cccc(C)c6nc45)Cc4c([N+](=O)[O-])ncn4C)c3nc12 | 0.0436 µM (active) | 44.8 µM (inactive) | 6.95 µM (inactive) | 0.143 µM (active) | 0.705 µM (active) | > 1100 µM (inactive) | 1.07 µM (active) | 29 µM (inactive) | 1.79 µM (inactive) | 1.4 µM (inactive) | 0.0396 µM (active) | 1.53 µM (inactive) | 0.293 µM (active) | 22 µM (inactive) | 41.7 µM (inactive) | 4.01 µM (inactive) | 5.22 µM (inactive) | 1.67 µM (inactive) | 1.91 µM (inactive) | 25.4 µM (inactive) |
| CC1=C(C(=O)OC(C)(C)C)C(c2ccc([N+](=O)[O-])cc2)C(C(=O)OC(C)(C)C)=C(C)N1 | 17 µM (inactive) | 32.4 µM (inactive) | 28.6 µM (inactive) | 26.9 µM (inactive) | 22.6 µM (inactive) | 20.2 µM (inactive) | 20.1 µM (inactive) | 20.7 µM (inactive) | 18.5 µM (inactive) | 20.5 µM (inactive) | 16.9 µM (inactive) | 19.6 µM (inactive) | 25.5 µM (inactive) | 20.1 µM (inactive) | 28 µM (inactive) | 19.3 µM (inactive) | 18.8 µM (inactive) | 13.2 µM (inactive) | 19.1 µM (inactive) | 25.4 µM (inactive) |
| CCN(CC)CCCn1c(=O)c2ccccc2n2c3c(=O)n(C)c(=O)n(C)c3nc12 | 4.66 µM (inactive) | 3.37 µM (inactive) | 18.3 µM (inactive) | 3.42 µM (inactive) | 5.09 µM (inactive) | 14 µM (inactive) | 15.7 µM (inactive) | 6.95 µM (inactive) | 15 µM (inactive) | 4.65 µM (inactive) | 0.619 µM (active) | 4.67 µM (inactive) | 14.2 µM (inactive) | 14.4 µM (inactive) | 2.47 µM (inactive) | 16 µM (inactive) | 10.9 µM (inactive) | 8.95 µM (inactive) | 12.1 µM (inactive) | 6.79 µM (inactive) |
